Data taken from PubChem BioAssay AID179 (DTP/NCI, 2004).
Calls of active or inactive are those of the source.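 How the source made its calls: active means compounds giving half or more protection of infected cells from virus-caused growth loss, again on retest; inactive means the rest.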

Tested on: CEM cells HIV-1 protection, formazan growth assay
Experiment: NCI AIDS Antiviral Assay
Details: for IC50: measured here: growth of uninfected CEM cells
Method in brief: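 Soluble formazan readout of cell growth; CEM cells ± HIV-1; 5 drug concs. ≥50% protection → retest; ≥50% again = moderately active; reproducible 100% = confirmed active.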

SMILES | EC50 [µM] | IC50 [µM] | outcome
O=C(O)/C(=C/c1ccccc1[N+](=O)[O-])c1cccs1 | > 912 | 457 | –
CCOP(=O)(OCC)C(NC(=O)OCC(Cl)(Cl)Cl)n1nnc(C(=O)OC)c1C(=O)OC (configuration not stated) | > 200 | > 200 | –
C[N+]1(CCC(C(N)=O)(c2ccccc2)c2ccccc2)CCCC12CCCCC2 (configuration not stated) | – | – | inactive
[C-]#[O+].[C-]#[O+].[C-]#[O+].[Re].c1ccc2c(c1)[cH-]c1ccccc12 | > 1.66 | > 1.66 | –
Cn1ccnc1.Cn1ccnc1.Cn1ccnc1.Cn1ccnc1.[O-][Cl+3]([O-])([O-])[O-].[Pt+2] | > 200 | > 200 | –
O=c1c2ccccc2nc(N/N=C/c2ccc([N+](=O)[O-])cc2)n1-c1ccccc1 | > 50.1 | > 50.1 | –
CC1(C)O[C@@H](CCl)C[C@@H](C#N)O1 | – | – | inactive
Oc1ccc2ccccc2c1C1=NNc2n[nH]c(=S)n2N1 | > 148 | 19.1 | –
CCOC(=O)C(CC#Cc1ccc(C#CCC(NC(C)=O)C(=O)OCC)cc1)NC(C)=O (configuration not stated) | > 200 | > 200 | –
Nc1ncnc2oc(C3OC(COC(=O)c4ccccc4)C(OC(=O)c4ccccc4)C3OC(=O)c3ccccc3)nc12 (configuration not stated) | > 200 | 148 | –
CC(=O)Oc1c2ccsc2cc2ccsc12 | > 75.9 | 3.31 | –
O=C1C(c2ccccc2)=C(c2ccccc2)C1(Cl)Cl | > 200 | 2.45 | –
CCOC(=O)CN(c1scc(-c2ccccc2)c1C(=O)OCC)S(=O)(=O)c1ccc(C)cc1 | > 200 | 9.33 | –
CCOC(=O)CCC(NC(=O)c1ccc(N=Cc2nc3ccccc3nc2-c2ccccc2)cc1)C(=O)OCC (configuration not stated) | > 12.6 | > 12.6 | –
O=S(=O)([O-])c1ccc2c(c1)-c1nc-2nc2[n-]c(nc3nc(nc4[n-]c(n1)c1ccc(S(=O)(=O)[O-])cc41)-c1cc(S(=O)(=O)[O-])ccc1-3)c1ccc(S(=O)(=O)[O-])cc21.[Cu+2].[Na+] | > 251 | 0.603 | –
COC(=O)c1cc(C(=CCC[C@H]2CC[C@@]3(C)[C@@H](CC[C@H]4[C@@H]3CC[C@]3(C)[C@@H](C(C)CCCC(C)C)CC[C@@H]43)C2)c2cc(F)c(OC)c(C(=O)OC)c2)cc(F)c1OC (some centres not stated) | > 200 | > 200 | –
COc1ccc(C2=NNC(=O)OC2c2ccccc2)cc1 (configuration not stated) | > 63.1 | 7.24 | –
C=C=C(C)C(=O)N(C(C)C)C(C)C | > 200 | > 200 | –
O=C1CN=C(c2ccccc2)c2cc(Cl)ccc2N1 | > 26.3 | > 26.3 | –
Cc1[nH]c2ccccc2c1C(c1c(C)[nH]c2ccccc12)c1c(C)[nH]c2ccccc12 | 0.0631 | 58.9 | –
COc1cc(OC)c2c(=O)c(OC)c(-c3ccc4c(c3)OCO4)oc2c1 | > 200 | > 200 | –

SMILES | EC50 [µM] | IC50 [µM] | outcome
CC(=O)O[C@H]1CC[C@@]2(C)C(=CC[C@H]3[C@@H]4CC[C@H]([C@H](C)C(=O)OCC5OC(n6cc(C)c(=O)[nH]c6=O)CC5N=[N+]=[N-])[C@@]4(C)CC[C@@H]32)C1 (some centres not stated) | > 200 | 4.79 | –
CC1CCC2N(C1)CC1C3(O)CC45OC6(O)C(O)CCC4(C)C6CCC5C3(O)CC(O)C1(O)C2(C)O (configuration not stated) | > 490 | > 490 | –
O=C(C(=O)c1ccc(Cc2ccc(C(=O)C(=O)c3ccccc3)cc2)cc1)c1ccccc1 | > 575 | > 575 | –
NC(=Nc1ccc(O)cc1)S(=O)(=O)O | 63.1 | 97.7 | –
CC1(C)OCC2OC3([C@H]4OC(C)(C)O[C@@H]4CO)OC(C)(C)OC3C2O1 (some centres not stated) | > 200 | > 200 | –
CC1CCC2(CO)C(CO)=CCCC2[C@@]1(C)CC/C(=C/CO)CO (some centres not stated) | – | – | inactive
Oc1ccc(Cc2nccc3cc(O)c(O)cc23)cc1O | > 200 | 29.5 | –
COCCOC(=O)NCn1cc(-c2ccccc2)nn1 | > 200 | > 200 | –
CCN(CC)c1ccc(/C=C/c2n(-c3ccccc3)c3ccccc3[n+]2C)cc1 | > 2 | 0.115 | –
CC(NC(=O)C(N)Cc1ccc(O)cn1)C(=O)O (configuration not stated) | > 200 | > 200 | –
Cc1cc(=O)[nH]c(NN2C(Cl)C(=O)C2c2cccc([N+](=O)[O-])c2)n1 (configuration not stated) | > 53.7 | 15.5 | –
N#C/C(=C/c1ccc(Cl)cc1)c1ccc(Cl)cc1 | > 200 | 195 | –
CN(C)Cc1cc(N=Nc2cccc(Cl)c2)ccc1O | > 20 | 4.79 | –
O=S(=O)(CC#CCO)c1ccccc1 | – | – | inactive
O=C1NNC(=O)c2ccccc2SSc2ccccc2C(=O)NNC(=O)c2ccccc2SSc2ccccc21 | 5.01 | 25.1 | –
Cc1cn(C2CC(S(=O)c3ccccc3)C(CO)O2)c(=O)[nH]c1=O (configuration not stated) | > 200 | > 200 | –
CCN1CC2(C)CC[C@@H](OC)C34[C@@H]2[C@H](OC(C)=O)C2(OCO[C@@]25C[C@H](OC)C2C[C@]3(O)[C@@H]5[C@H]2O)[C@H]14 | – | – | inactive
COc1ccc2c(=O)c(C)c(/C=C/c3ccco3)oc2c1 | > 158 | 27.5 | –
COc1ccc(N2C(=O)C3c4[nH]c5ccc(F)cc5c4C4CCC(C(C)(C)C)CC4C3C2=O)cc1 (configuration not stated) | > 200 | 22.4 | –
O=[N+]([O-])c1ccc2nsnc2c1 | > 105 | 47.9 | –
